Source: paper PMC6222927, “Aminobenzosuberone Scaffold as a Modular Chemical Tool for the Inhibition of Therapeutically Relevant M1 Aminopeptidases” (Molecules : A Journal of Synthetic Chemistry and Natural …, 2018)

Tests used:
[1] = Octanol/water partition coefficient (logD7.4) by reversed-phase HPLC; settings: pH 7.4
Protocol: The flow was 0.9 mL/min. The aminobenzosuberone derivatives were dissolved at 0.4 µM in methanol. The standards were also dissolved in methanol. Column void volume was estimated from the retention time of uracil, which was included as a non-retained internal reference with each injection.

[2] = molecular target: aminopeptidase from A. proteolytica (AAP); parameters: method as in PMID 21843945; settings: ref 58; cited from earlier work
[3] = molecular target: human puromycine sensitive aminopeptidase (rHsPSA) (Homo sapiens, UniProt P55786); experiment: rHsPSA inhibition, Leu-pNA substrate, Dixon method; format: biochemical; settings: triplicate, SD
human puromycine sensitive aminopeptidase (rHsPSA), sequence (P55786 whole entry): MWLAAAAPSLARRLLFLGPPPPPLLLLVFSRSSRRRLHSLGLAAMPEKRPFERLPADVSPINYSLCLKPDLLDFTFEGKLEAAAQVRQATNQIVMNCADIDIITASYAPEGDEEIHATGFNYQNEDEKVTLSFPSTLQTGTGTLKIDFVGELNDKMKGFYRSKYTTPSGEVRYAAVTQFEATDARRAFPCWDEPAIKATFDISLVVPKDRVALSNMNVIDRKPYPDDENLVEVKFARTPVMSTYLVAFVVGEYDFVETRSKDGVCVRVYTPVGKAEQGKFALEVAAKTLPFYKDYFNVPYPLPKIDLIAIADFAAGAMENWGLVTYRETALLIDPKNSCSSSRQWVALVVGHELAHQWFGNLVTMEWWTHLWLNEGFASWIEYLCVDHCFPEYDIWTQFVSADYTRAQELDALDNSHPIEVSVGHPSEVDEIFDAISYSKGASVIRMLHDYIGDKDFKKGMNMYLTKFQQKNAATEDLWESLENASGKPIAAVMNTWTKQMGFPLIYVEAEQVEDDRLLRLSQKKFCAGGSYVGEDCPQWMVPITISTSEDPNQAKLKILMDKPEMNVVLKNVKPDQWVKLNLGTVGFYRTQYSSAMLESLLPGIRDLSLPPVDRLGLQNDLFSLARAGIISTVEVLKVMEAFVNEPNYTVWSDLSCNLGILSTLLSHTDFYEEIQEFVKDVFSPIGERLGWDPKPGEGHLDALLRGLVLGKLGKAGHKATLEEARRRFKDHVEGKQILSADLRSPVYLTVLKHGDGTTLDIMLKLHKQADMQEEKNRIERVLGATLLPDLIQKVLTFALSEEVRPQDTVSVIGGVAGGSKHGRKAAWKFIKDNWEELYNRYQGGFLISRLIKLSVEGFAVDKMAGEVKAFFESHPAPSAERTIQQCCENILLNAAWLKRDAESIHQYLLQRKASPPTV
Protocol: Enzyme activity assays were carried out in 10 mM Tris-HCl buffer at pH 7.5 with 150 mM NaCl, enzyme, 100 µM substrate (Leu-pNA) in a 100 μL reaction at 37 °C. The absorbance was read at 405 nm. Concentrations ranging from 1 nM to 100 μM of inhibitors (dissolved in DMSO) were incubated with each of the enzymes ([…]) for 30 min at 37 °C in a 96 well plate. After addition of the substrate, immediate increase in absorption was measured. All inhibition assays were performed in triplicates and initial velocities were measured. Percentage inhibition and log values of inhibitor concentrations were plotted using SigmaPlot to determine IC50 values. Ki values were determined by the Dixon method. The assay consists of reaction buffer, enzyme and varied concentrations of Leu-pNA (25, 50, 100, 200 and 400 µM). […]. All the reactions were performed in triplicates, SD values were reported.

[4] = molecular target: T1, human Leucyl-cystinyl aminopeptidase (rHsIRAP) (Homo sapiens, UniProt Q9UIQ6); experiment: rHsIRAP inhibition, L-AMC fluorigenic substrate; format: biochemical; settings: 50 µM L-AMC; read-out: IC50 rHsIRAP
T1 construct: made in house; host or cells: Hi5 insect cells (baculovirus produced in sf9)
T1 sequence (Q9UIQ6 155-1025 limits assumed): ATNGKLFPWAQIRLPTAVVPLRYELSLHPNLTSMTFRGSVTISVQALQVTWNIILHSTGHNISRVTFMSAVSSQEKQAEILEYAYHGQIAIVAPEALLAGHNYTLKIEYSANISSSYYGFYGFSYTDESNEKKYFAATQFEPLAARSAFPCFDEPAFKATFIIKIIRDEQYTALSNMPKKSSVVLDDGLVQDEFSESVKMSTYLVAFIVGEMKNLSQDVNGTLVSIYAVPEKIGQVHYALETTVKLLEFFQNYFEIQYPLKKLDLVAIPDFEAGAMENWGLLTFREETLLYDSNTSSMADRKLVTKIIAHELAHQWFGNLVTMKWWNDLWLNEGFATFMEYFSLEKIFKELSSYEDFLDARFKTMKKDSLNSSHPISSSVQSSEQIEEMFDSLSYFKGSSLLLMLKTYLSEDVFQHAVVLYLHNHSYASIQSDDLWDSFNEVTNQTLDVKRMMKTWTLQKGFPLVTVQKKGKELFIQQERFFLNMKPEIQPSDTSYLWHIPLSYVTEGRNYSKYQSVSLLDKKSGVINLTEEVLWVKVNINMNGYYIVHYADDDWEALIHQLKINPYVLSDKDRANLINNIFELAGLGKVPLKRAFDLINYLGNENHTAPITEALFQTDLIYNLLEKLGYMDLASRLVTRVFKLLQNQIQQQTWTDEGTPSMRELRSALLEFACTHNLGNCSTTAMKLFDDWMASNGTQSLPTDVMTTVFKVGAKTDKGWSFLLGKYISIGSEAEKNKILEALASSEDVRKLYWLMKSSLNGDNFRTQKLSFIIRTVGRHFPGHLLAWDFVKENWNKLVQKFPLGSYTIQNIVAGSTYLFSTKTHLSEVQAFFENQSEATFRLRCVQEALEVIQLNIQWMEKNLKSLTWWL
Protocol: The enzymatic activity of HsERAP1, HsERAP2 and HsIRAP was determined by following the time-dependent increase in fluorescence at 460 nm (excitation: 380 nm) of the fluorigenic substrates L-Leucine-7-amido-4-methyl coumarin (L-AMC; Sigma, Darmstatd, Germany) for HsERAP1 and HsIRAP and L-arginyl-7-amido-4-methyl coumarin (R-AMC; Sigma) for HsERAP2. […]. The reaction was followed for 10 min at room temperature and the remaining enzymatic activity was calculated by measuring the slope of the time course. […]

NC1CCc2c(Br)cccc2CC1=O (stereo not shown) [21e]
chromatographic logD [1]: 1.41
Ki [2]: > 100 µM
Ki [3]: 1.07 ± 0.063 µM
IC50 [4]: 2.6 ± 0.2 µM
